Bounds are passed on as bounds.

In the first assay the test system is beta-TC6 cells. Briefly: Insulin HTRF assay (relative activity Ar) in beta-TC6 cells. The class given is cell-based, mouse. The following applies: Mus musculus, Beta-TC6, 4 h, insulin HTRF, supernatant of beta-TC6 cells, incubation with test compound at 37°C for 2, 3, 4h; read-out: Ar (relative activity). In short, it runs like this: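 beta-TC6 cells (15k/well, seeded 24 or 48 h) washed, then exposed to compound in induction buffer (0.5% DMSO final) for 2, 3 or 4 h at 37°C.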
Turning to `CN(C)c1ccc(-c2cc3c(Nc4ccc(O)cc4)nccc3n2C)cc1` [Compound 226, 4-[[2-(4-dimethylaminophenyl)-1-methyl-pyrrolo[3,2-c]pyridin-4-yl]amino]phenol], the Emax lay in the range of 50 to 100%.
The same measure, in the same setting: under `CN(C)C(=O)c1ccc(-c2cc3cnc(Nc4cccc(S(C)(=O)=O)c4)cc3[nH]2)cc1` [Compound 30, N,N-dimethyl-4-[6-(3-methylsulfonylanilino)-1H-pyrrolo[3,2-c]pyridin-2-yl]benzamide] stands 50 to 100%; under `COc1ccc(Nc2cc3c(cn2)cc(-c2cccc(N(C)C(C)=O)c2)n3C)cc1OC` [Compound 160, N-[3-[6-(3,4-dimethoxyanilino)-1-methyl-pyrrolo[3,2-c]pyridin-2-yl]phenyl]-N-methyl-acetamide], 50 to 100%.
Still for that read-out and setting: under `COc1cc(Nc2nccc3[nH]c(-c4ccc5c(c4)OCCO5)nc23)cc(OC)c1OC` [Compound 409, 2-(2,3-dihydro-1,4-benzodioxin-6-yl)-N-(3,4,5-trimethoxyphenyl)-1H-imidazo[4,5-c]pyridin-4-amine] stands 50 to 100%; under `c1ccc(Cn2cnc3c(NC4CCCCC4)nccc32)cc1` [Compound 449, 1-benzyl-N-cyclohexyl-imidazo[4,5-c]pyridin-4-amine], 50 to 100%; under `CN1CCN(c2ccc(Nc3nccc4[nH]c(-c5ccccc5)cc34)cc2)CC1` [Compound 320, N-[4-(4-methylpiperazin-1-yl)phenyl]-2-phenyl-1H-pyrrolo[3,2-c]pyridin-4-amine], 30 to 50%.
Same read-out and setting: under `Fc1cccc(-c2cc3c(Nc4cccnc4)nccc3[nH]2)c1` [Compound 200, 2-(3-fluorophenyl)-N-(3-pyridyl)-1H-pyrrolo[3,2-c]pyridin-4-amine] stands 30 to 50%; under `CC(=O)Nc1ccc(Nc2cc3c(cn2)cc(-c2ccc(C(=O)N(C)C)cc2)n3Cc2ccccc2)cc1` [Compound 57, 4-[6-(4-acetamidoanilino)-1-benzyl-pyrrolo[3,2-c]pyridin-2-yl]-N,N-dimethyl-benzamide], 30 to 50%; under `COc1cccc(-c2cc3c(cn2)ncn3Cc2ccc(OC)c(OC)c2)c1` [Compound 754, 1-[(3,4-dimethoxyphenyl)methyl]-6-(3-methoxyphenyl)imidazo[4,5-c]pyridine], 0 to 30%.
In the case of `CN1CCN(c2ccc(Nc3cc4c(cn3)cc(-c3ccc(C(=O)N(C)C)cc3)n4C)cc2)CC1` [Compound 49, N,N-dimethyl-4-[1-methyl-6-[4-(4-methylpiperazin-1-yl)anilino]pyrrolo[3,2-c]pyridin-2-yl]benzamide], the Emax fell in the range of 50 to 100%.
`Cn1cc(-c2cc3cnc(Nc4ccc5c(c4)OCCO5)cc3n2C)cn1` [Compound 128, N-(2,3-dihydro-1,4-benzodioxin-6-yl)-1-methyl-2-(1-methylpyrazol-4-yl)pyrrolo[3,2-c]pyridin-6-amine]: the Emax is 50 to 100%.
On the same count and under the same terms, under `COc1ccc(-c2cc3c(cn2)nc(NCc2cccnc2)n3C)cc1OC` [Compound 862, 6-(3,4-dimethoxyphenyl)-1-methyl-N-(3-pyridylmethyl)imidazo[4,5-c]pyridin-2-amine] stands 0 to 30%.
On the same count and under the same terms, under `CN(C)c1cccc(Nc2cc3c(cn2)ncn3-c2ccccc2)c1` [Compound 691, N1,N1-dimethyl-N3-(1-phenylimidazo[4,5-c]pyridin-6-yl)benzene-1,3-diamine] stands 30 to 50%.
The same measure, in the same setting: under `Cn1c(-c2ccsc2)cc2c(Nc3ccncn3)nccc21` [Compound 285, 1-methyl-N-pyrimidin-4-yl-2-(3-thienyl)pyrrolo[3,2-c]pyridin-4-amine] stands 50 to 100%; under `Cn1cc(-c2cc3cnc(Nc4ccccn4)cc3n2C)cn1` [Compound 139, 1-methyl-2-(1-methylpyrazol-4-yl)-N-(2-pyridyl)pyrrolo[3,2-c]pyridin-6-amine], 50 to 100%; under `CNc1nc2cnc(Nc3ccc(OC)c(OC)c3)cc2n1-c1cccc(C(F)(F)F)c1` [Compound 545, N6-(3,4-dimethoxyphenyl)-N2-methyl-1-[3-(trifluoromethyl)phenyl]imidazo[4,5-c]pyridine-2,6-diamine], 30 to 50%.
Consider `NC(=O)c1ccc(Nc2nccc3[nH]c(-c4ccccc4)cc23)cc1` [Compound 318, 4-[(2-phenyl-1H-pyrrolo[3,2-c]pyridin-4-yl)amino]benzamide], for which the Emax is over 100%.
On the same count and under the same terms, in the case of `CN(C)c1ccc(CNc2nccc3[nH]c(-c4ccncc4)nc23)cc1` [Compound 430, N-[(4-dimethylaminophenyl)methyl]-2-(4-pyridyl)-1H-imidazo[4,5-c]pyridin-4-amine] it was 50 to 100%.
The same measure, in the same setting: in the case of `COc1cc(Nc2nccc3c2cc(-c2cccnc2)n3C)cc(OC)c1OC` [Compound 237, 1-methyl-2-(3-pyridyl)-N-(3,4,5-trimethoxyphenyl)pyrrolo[3,2-c]pyridin-4-amine] it was over 100%.
On the same count and under the same terms, in the case of `CNc1nc2cnc(Nc3ccc(N4CCN(C)CC4)cc3)cc2n1-c1cc(OC)c(OC)c(OC)c1` [Compound 489, N2-methyl-N6-[4-(4-methylpiperazin-1-yl)phenyl]-1-(3,4,5-trimethoxyphenyl)imidazo[4,5-c]pyridine-2,6-diamine] it was 50 to 100%; in that of `COc1ccc(Nc2cc3c(cn2)cc(-c2cnn(C)c2)n3C)cc1OC` [Compound 129, N-(3,4-dimethoxyphenyl)-1-methyl-2-(1-methylpyrazol-4-yl)pyrrolo[3,2-c]pyridin-6-amine], over 100%.
Turning to `CNc1nc2cnc(-c3ccc(O)c(OC)c3)cc2n1Cc1ccccc1` [Compound 797, 4-[1-benzyl-2-(methylamino)imidazo[4,5-c]pyridin-6-yl]-2-methoxy-phenol], the Emax fell in the range of 30 to 50%.
As to `COc1cc(Nc2cc3c(cn2)ncn3C)cc(OC)c1OC` [Compound 725, 1-methyl-N-(3,4,5-trimethoxyphenyl)imidazo[4,5-c]pyridin-6-amine], the Emax lay in the range of 30 to 50%.
The same measure, in the same setting: in the case of `COc1ccc(OC)c(CCNc2nc3cnc(-c4cc(OC)c(OC)c(OC)c4)cc3n2C)c1` [Compound 593, N-[2-(2,5-dimethoxyphenyl)ethyl]-1-methyl-6-(3,4,5-trimethoxyphenyl)imidazo[4,5-c]pyridin-2-amine] it was 30 to 50%; in that of `CCN(CC)CCNC(=O)c1ccc(Nc2nccc3[nH]c(-c4ccncc4)nc23)cc1` [Compound 425, N-(2-diethylaminoethyl)-4-[[2-(4-pyridyl)-1H-imidazo[4,5-c]pyridin-4-yl]amino]benzamide], 50 to 100%; in that of `Cn1c(NCc2ccccc2)nc2cnc(-c3cccs3)cc21` [Compound 841, N-benzyl-1-methyl-6-(2-thienyl)imidazo[4,5-c]pyridin-2-amine], 30 to 50%.
As to `COc1ccc(Nc2nccc3c2cc(-c2cccc(F)c2)n3C)cc1OC` [Compound 208, N-(3,4-dimethoxyphenyl)-2-(3-fluorophenyl)-1-methyl-pyrrolo[3,2-c]pyridin-4-amine], the Emax lay in the range of 30 to 50%.
Same read-out and setting: under `COc1ccc(Cn2cnc3cnc(Nc4ccc5c(c4)OCO5)cc32)cc1OC` [Compound 731, N-(1,3-benzodioxol-5-yl)-1-[(3,4-dimethoxyphenyl)methyl]imidazo[4,5-c]pyridin-6-amine] stands 50 to 100%; under `Cn1cc(-c2cc3c(cn2)nc(NCc2ccccc2)n3C)cn1` [Compound 624, N-benzyl-1-methyl-6-(1-methylpyrazol-4-yl)imidazo[4,5-c]pyridin-2-amine], 30 to 50%; under `COc1cc(-c2cc3c(cn2)nc(NCc2cccc(C)c2)n3C)ccc1O` [Compound 808, 2-methoxy-4-[1-methyl-2-(m-tolylmethylamino)imidazo[4,5-c]pyridin-6-yl]phenol], 30 to 50%.
For `CC(=O)Nc1ccc(Nc2cc3[nH]c(-c4cccnc4)cc3cn2)cc1` [Compound 74, N-[4-[[2-(3-pyridyl)-1H-pyrrolo[3,2-c]pyridin-6-yl]amino]phenyl]acetamide], the Emax is over 100%.
On the same count and under the same terms, in the case of `COc1cccc(-c2nc3c(Nc4cccc(O)c4)nccc3[nH]2)c1F` [Compound 478, 3-[[2-(2-fluoro-3-methoxy-phenyl)-1H-imidazo[4,5-c]pyridin-4-yl]amino]phenol] it was 50 to 100%.
On the same count and under the same terms, in the case of `CC(=O)c1cccc(Nc2cc3c(cn2)cc(-c2cnn(C)c2)n3C)c1` [Compound 150, 1-[3-[[1-methyl-2-(1-methylpyrazol-4-yl)pyrrolo[3,2-c]pyridin-6-yl]amino]phenyl]ethanone] it was 50 to 100%; in that of `COC(=O)c1ccc(Nc2nccc3[nH]c(-c4ccsc4)cc23)cc1` [Compound 261, methyl 4-[[2-(3-thienyl)-1H-pyrrolo[3,2-c]pyridin-4-yl]amino]benzoate], 0 to 30%.
Same read-out and setting: under `COc1ccccc1-c1cc2c(Nc3ccc(NC(C)=O)cc3)nccc2n1C` [Compound 301, N-[4-[[2-(2-methoxyphenyl)-1-methyl-pyrrolo[3,2-c]pyridin-4-yl]amino]phenyl]acetamide] stands 50 to 100%.
With `CC(C)Oc1ccc(Nc2nccc3[nH]c(-c4ccsc4)cc23)cc1` [Compound 269, N-(4-isopropoxyphenyl)-2-(3-thienyl)-1H-pyrrolo[3,2-c]pyridin-4-amine], the Emax fell in the range of 0 to 30%.
Same read-out and setting: under `CNc1nc2cnc(-c3ccc(Cl)cc3)cc2n1Cc1ccccc1` [Compound 792, 1-benzyl-6-(4-chlorophenyl)-N-methyl-imidazo[4,5-c]pyridin-2-amine] stands 30 to 50%; under `Oc1ccc(Nc2nccc3[nH]c(-c4cccc(F)c4)cc23)cc1` [Compound 199, 4-[[2-(3-fluorophenyl)-1H-pyrrolo[3,2-c]pyridin-4-yl]amino]phenol], 50 to 100%.

The same assay, now with this note: insulin HTRF, supernatant of beta-TC6 cells, incubation with test compound at 37°C for 2, 3, 4h.
For the molecule `CNc1nc2cnc(-c3ccc(CO)cc3)cc2n1-c1ccccc1` [Compound 785, [4-[2-(methylamino)-1-phenyl-imidazo[4,5-c]pyridin-6-yl]phenyl]methanol], the “Ar (relative activity)” value is “+ (0 % < Ar < 30 %)”.

Source of the values: patent EP2818472A1, “Imidazo[4,5-c]pyridine and pyrrolo[3,2-c]pyridine compounds as G-protein-coupled receptor kinase 5 (GRK5) modulators” (Max-Planck-Gesellschaft zur Förderung der Wissenschaften …, priority 2013, dated 2014).
